{
  "source": "patent US6897214B2",
  "about": "“Quinazoline derivatives” (Zeneca Limited, priority 1996, dated 2005)",
  "data": [
    {"test_system": "xenografts of the human vulval epidermoid carcinoma cell line A-431", "assay": "Test (d): in vivo inhibition of growth of A-431 xenografts in athymic nude mice", "settings": "dosage of 50 mg/kg/day", "description": "(d) An in-vivo assay in a group of athymic nude mice (strain ONU:Alpk) which determines the ability of a test compound (usually administered orally as a ball-milled suspension in 0.5% polysorbate) to inhibit the growth of xenografts of the human vulval epidermoid carcinoma cell line A-431.\nA-431 cells were maintained in culture in DMEM supplemented with 5% FCS and 2 mM glutamine. Freshly cultured cells were harvested by trypsinization and injected subcutaneously (10 million cells/0.1 ml/mouse) into both flanks of a number of donor nude mice. When sufficient tumour material was available (after approximately 9 to 14 days), fragments of tumour tissue were transplanted into the flanks of recipient nude mice (test day 0). Generally, on the seventh day after transplantation (test day 7) groups of 7 to 10 mice with similar-sized tumours were selected and dosing of the test compound was commenced. Once-daily dosing of test compound was continued for a total of 13 days (test days 7 to 19 inclusive). In some studies the dosing of the test compound was continued beyond test day 19, for example to test day 26. In each case, on the following day the animals were killed and final tumour volume was calculated from measurements of the length and width of the tumours. Results were calculated as a percentage inhibition of tumour volume relative to untreated controls.", "units": {"inhibition in Test (d) (tumour volume relative to untreated controls)": "%"}, "values": [
      {"compound": "Fc1ccc(Nc2ncnc3ccc(-c4ccc(CCN5CCOCC5)s4)cc23)cc1Cl", "note": "[Example 8, 4-(3-chloro-4-fluoroanilino)-6-[5-(2-morpholinoethyl)thien-2-yl]quinazoline]", "inhibition in Test (d) (tumour volume relative to untreated controls)": 64}
    ]},
    {"test_system": "not given", "assay": "not given", "settings": "not given", "units": {"melting point": "°C"}, "values": [
      {"compound": "Cl.O=C(Nc1ccc2ncnc(Nc3ccc(F)c(Cl)c3)c2c1)c1cccs1", "melting point": "> 250"},
      {"compound": "Cl.O=C(Nc1ccc2ncnc(Nc3ccc(F)c(Cl)c3)c2c1)c1ccno1", "melting point": "> 250"},
      {"compound": "N#Cc1ccc(-c2ccc3ncnc(Nc4ccc(F)c(Cl)c4)c3c2)cc1", "note": "[Example 1, 4-(3-chloro-4-fluoroanilino)-6-(4-cyanophenyl)quinazoline]", "melting point": "> 250"},
      {"compound": "Cc1cccc(Nc2ncnc3ccc(-c4ccccc4)cc23)c1", "note": "[Example 2, 4-(3-methylanilino)-6-phenylquinazoline]", "melting point": "207 to 209"},
      {"compound": "Fc1ccc(Nc2ncnc3ccc(-c4ccco4)cc23)cc1Cl", "note": "[Example 5, 4(3-chloro-4-fluoroanilino)-6-(2-furyl)quinazoline]", "melting point": "232 to 234"},
      {"compound": "Fc1ccc(Nc2ncnc3ccc(-c4cccs4)cc23)cc1Cl", "note": "[Example 6, 4-(3-chloro-4-fluoroanilino)-6-(2-thienyl)quinazoline]", "melting point": "205 to 208"},
      {"compound": "Fc1ccc(Nc2ncnc3ccc(-c4ccsc4)cc23)cc1Cl", "note": "[Example 7, 4-(3-chloro-4-fluoroanilino)-6-(3-thienyl)quinazoline]", "melting point": "195 to 197"},
      {"compound": "Cc1cccc(Nc2ncnc3ccc(Nc4ncc[nH]4)cc23)c1", "note": "[Example 14, 6-(2-imidazolylamino)-4-(3-methylanilino)quinazoline]", "melting point": "256 to 258"},
      {"compound": "Cc1cccc(Nc2ncnc3ccc(NS(=O)(=O)c4cn(C)cn4)cc23)c1", "note": "[Example 15, 4-(3-methylanilino)-6-(1-methylimidazole-4-sulphonamido)quinazoline]", "melting point": "> 250"},
      {"compound": "Cc1cccc(Nc2ncnc3ccc(NCc4ccsc4)cc23)c1", "note": "[Example 16, 4-(3-methylanilino)-6-(3-thienylmethylamino)quinazoline]", "melting point": "207 to 208"},
      {"compound": "Fc1ccc(Nc2ncnc3ccc(NCc4cccs4)cc23)cc1Cl", "note": "[Example 19, 4-(3-chloro-4-fluoroanilino)-6-(2-thienylmethylamino)quinazoline]", "melting point": "193 to 195"},
      {"compound": "CNc1cc2ncnc(Nc3ccc(F)c(Cl)c3)c2cc1NC(=O)c1cccnc1", "note": "[Example 24, 4-(3-chloro-4-fluoroanilino)-7-methylamino-6-(pyridine-3-carboxamido)quinazoline]", "melting point": "> 260"},
      {"compound": "Cc1cccc(Nc2ncnc3ccc(CSc4c[nH]nn4)cc23)c1", "note": "[Example 34, 4-(3-methylanilino)-6-(1,2,3-triazol-4-ylthiomethyl)quinazoline]", "melting point": "64 to 68"},
      {"compound": "Cc1cccc(Nc2ncnc3ccc(CSc4nccn4C)cc23)c1", "note": "[Example 35, 4-(3-methylanilino)-6-(N-methylimidazol-2-ylthiomethyl)quinazoline]", "melting point": "137 to 139"},
      {"compound": "Cc1cccc(Nc2ncnc3ccc(CSc4ncc[nH]4)cc23)c1", "note": "[Example 36, 6-(2-imidazolylthiomethyl)-4-(3-methylanilino)-quinazoline]", "melting point": "217 to 219"},
      {"compound": "Cc1cccc(Nc2ncnc3ccc(CSc4nc5ccccc5[nH]4)cc23)c1", "note": "[Example 37, 6-(2-benzimidazolylthiomethyl)-4-(3-methylanilino)quinazoline]", "melting point": "123 to 129"},
      {"compound": "Cc1cc(Nc2ncnc3ccc(-c4cccs4)cc23)ccc1OCc1ccccn1", "note": "[Example 38, 4-[3-methyl-4-(2-pyridylmethoxy)anilino]-6-(2-thienyl)-quinazoline]", "melting point": "205 to 206"},
      {"compound": "Cc1cc(Nc2ncnc3ccc(-c4ccoc4)cc23)ccc1OCc1ccccn1", "note": "[Example 39, 6-(3-furyl)-4-[3-methyl-4-(2-pyridylmethoxy)anilino]-quinazoline]", "melting point": "206 to 208"}
    ]},
    {"biological_target": "T1, EGF receptor tyrosine kinase (Homo sapiens, UniProt P00533)", "T1 construct": "Receptor tyrosine kinase was obtained in partially purified form from A-431 cells; endogenous in cells; host or cells: A-431 cells (human vulval carcinoma), solubilised membrane preparation", "T1 sequence (P00533 25-1210)": "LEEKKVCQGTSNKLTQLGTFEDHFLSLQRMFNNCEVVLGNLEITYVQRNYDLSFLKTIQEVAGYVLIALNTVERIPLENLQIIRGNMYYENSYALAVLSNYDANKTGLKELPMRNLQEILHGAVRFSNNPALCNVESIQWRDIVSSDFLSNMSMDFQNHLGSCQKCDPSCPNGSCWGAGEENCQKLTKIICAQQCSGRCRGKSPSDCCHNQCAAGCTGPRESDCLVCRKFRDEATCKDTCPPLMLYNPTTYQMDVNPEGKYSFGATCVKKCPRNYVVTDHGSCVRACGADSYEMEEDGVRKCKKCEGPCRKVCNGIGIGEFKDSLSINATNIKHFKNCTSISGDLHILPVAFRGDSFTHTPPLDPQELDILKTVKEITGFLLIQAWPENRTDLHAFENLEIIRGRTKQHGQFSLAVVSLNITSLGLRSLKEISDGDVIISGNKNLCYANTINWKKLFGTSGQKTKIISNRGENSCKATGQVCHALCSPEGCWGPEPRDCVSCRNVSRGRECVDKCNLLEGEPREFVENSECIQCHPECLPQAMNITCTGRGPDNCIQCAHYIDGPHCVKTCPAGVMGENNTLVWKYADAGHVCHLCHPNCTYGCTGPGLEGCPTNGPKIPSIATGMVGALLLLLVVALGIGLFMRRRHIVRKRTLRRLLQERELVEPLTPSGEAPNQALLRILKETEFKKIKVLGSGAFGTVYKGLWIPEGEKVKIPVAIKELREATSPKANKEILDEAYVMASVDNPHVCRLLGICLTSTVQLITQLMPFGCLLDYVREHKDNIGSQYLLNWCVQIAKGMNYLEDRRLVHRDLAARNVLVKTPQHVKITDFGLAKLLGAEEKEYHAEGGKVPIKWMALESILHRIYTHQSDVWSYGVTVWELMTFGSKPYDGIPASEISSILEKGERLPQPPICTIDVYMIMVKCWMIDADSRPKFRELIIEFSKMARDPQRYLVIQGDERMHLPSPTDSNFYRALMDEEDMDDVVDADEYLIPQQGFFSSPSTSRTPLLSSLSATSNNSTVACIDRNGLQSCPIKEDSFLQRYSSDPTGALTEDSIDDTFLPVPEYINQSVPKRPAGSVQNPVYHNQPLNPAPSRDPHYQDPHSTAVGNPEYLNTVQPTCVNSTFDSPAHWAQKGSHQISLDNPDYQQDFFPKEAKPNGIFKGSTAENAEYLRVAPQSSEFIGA", "assay": "Test (a): in vitro inhibition of the enzyme EGF receptor tyrosine kinase", "format": "biochemical", "settings": "enzyme partially purified from A-431 cells", "description": "(a) An in vitro assay which determines the ability of a test compound to inhibit the enzyme EGF receptor tyrosine kinase. Receptor tyrosine kinase was obtained in partially purified form from A-431 cells (derived from human vulval carcinoma) by the procedures described below which are related to those described by Carpenter et al, J. Biol. Chem., 1979, 254, 4884, Cohen et al., J. Biol. Chem., 1982, 257, 1523 and by Braun et al., J. Biol Chem., 1984, 259, 2051.\nA-431 cells were grown to confluence using Dulbecco's modified Eagle's medium DMEM) containing 5% fetal calf serum (FCS). The obtained cells were homogenised in a hypotonic borate/EDTA buffer at pH 10.1. The homogenate was centrifuged at 400 g for 10 minutes at 0-4° C. The supernatant was centrifuged at 25,000 g for 30 minutes at 0-4° C. […]\nThe test compound/EGF mixture solution (5 μl) was added to the test enzyme solution (10 μl) and the mixture was incubated at 0-4° C. for 30 minutes. […] Radioactivity present in the filter paper was measured using a liquid scintillation counter (Sequence A). […]\nReceptor tyrosine kinase inhibition was calculated as follows: [formula]\nThe extent of inhibition was then determined at a range of concentrations of test compound to give an IC50 value.", "units": {"IC50": "nM"}, "values": [
      {"compound": "Fc1ccc(Nc2ncnc3ccc(-c4ccc(CCN5CCOCC5)s4)cc23)cc1Cl", "note": "[Example 8, 4-(3-chloro-4-fluoroanilino)-6-[5-(2-morpholinoethyl)thien-2-yl]quinazoline]", "IC50": 40}
    ]},
    {"test_system": "human naso-pharyngeal cancer cell line KB", "assay": "Test (b): in vitro inhibition of EGF-stimulated growth of KB cells", "format": "cell-based", "settings": "EGF (10 ng/ml) stimulated growth, MTT", "description": "(b) An in vitro assay which determines the ability of a test compound to inhibit the EGF-stimulated growth of the human naso-pharyngeal cancer cell line KB.\nKB cells were seeded into wells at a density of 1×10^4-1.5×10^4 cells per well and grown for 24 hours in DMEM supplemented with 5% FCS (charcoal-stripped). Cell growth was determined after. incubation for 3 days by the extent of metabolism of MTT tetrazolium dye to furnish a bluish colour. Cell growth was then determined in the presence of EGF (10 ng/ml) or in the presence of EGF (10 ng/ml) and a test compound at a range of concentrations. An IC50 value could then be calculated.", "units": {"IC50": "nM"}, "values": [
      {"compound": "Fc1ccc(Nc2ncnc3ccc(-c4ccc(CCN5CCOCC5)s4)cc23)cc1Cl", "note": "[Example 8, 4-(3-chloro-4-fluoroanilino)-6-[5-(2-morpholinoethyl)thien-2-yl]quinazoline]", "IC50": 190}
    ]},
    {"test_system": "transplanted human mammary carcinoma", "assay": "not given", "settings": "carcinoma which does not express EGF receptor tyrosine kinase; cited from earlier work", "values": [
      {"compound": "O=CN/C=C/c1cc(O)ccc1O", "note": "[erbstatin]", "growth of another carcinoma": "without effect on the growth"}
    ]},
    {"test_system": "transplanted human mammary carcinoma", "assay": "not given", "settings": "carcinoma which expresses EGF receptor tyrosine kinase; athymic nude mice; cited from earlier work", "values": [
      {"compound": "O=CN/C=C/c1cc(O)ccc1O", "note": "[erbstatin]", "growth of transplanted human mammary carcinoma": "specifically attenuates the growth"}
    ]}
  ]
}
